What all share (format): cell-based
For test [1], the target named is T1, hGCGR (Homo sapiens, UniProt P47871).
T1 construct: expressed in transfected cells
As to the kind of experiment: Functional cAMP formation (HTRF) in HEK-293 clonal cells expressing hGCGR, 0.1% bovine casein, without or with 1.0% human serum albumin. The following applies: geometric mean, read-out: hGCGR EC50, nM (SEM, n). The procedure, abridged: (§1)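 Readings of the HTRF 665/620 nm ratio, which falls as cAMP rises, were converted to nM cAMP using a standard curve after 30 min peptide exposure at 37° C.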

Test [2] has as its target T2, hGIPR (Homo sapiens, UniProt P48546).
T2 construct: expressed in transfected cells
T2 sequence (P48546 22-466): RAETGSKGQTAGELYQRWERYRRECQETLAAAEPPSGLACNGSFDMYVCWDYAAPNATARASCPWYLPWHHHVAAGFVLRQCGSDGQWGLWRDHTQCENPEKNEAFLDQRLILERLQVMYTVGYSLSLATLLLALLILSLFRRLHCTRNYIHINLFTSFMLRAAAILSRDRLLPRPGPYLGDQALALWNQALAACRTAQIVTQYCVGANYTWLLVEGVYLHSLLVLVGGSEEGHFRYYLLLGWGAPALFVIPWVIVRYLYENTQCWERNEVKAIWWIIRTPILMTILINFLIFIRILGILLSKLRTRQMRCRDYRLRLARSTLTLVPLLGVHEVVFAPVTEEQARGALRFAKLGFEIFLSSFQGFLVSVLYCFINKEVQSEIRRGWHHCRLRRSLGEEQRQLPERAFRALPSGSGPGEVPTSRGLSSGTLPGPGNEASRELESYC
As to the kind of experiment: Functional cAMP formation (HTRF) in HEK-293 clonal cells expressing hGIPR, 0.1% bovine casein, without or with 1.0% human serum albumin. To be noted: for EC50: geometric mean, read-out: hGIPR EC50, nM (SEM, n); for Emax: read-out: hGIPR Emax, % ± SEM. The procedure, abridged:
as §1

For test [3], the target named is hGLP-1R (Homo sapiens, UniProt P43220). As to the kind of experiment: Functional cAMP formation (HTRF) in HEK-293 clonal cells expressing hGLP-1R, 0.1% bovine casein, without or with 1.0% human serum albumin. Details: expressed in transfected cells. To be noted: for EC50: geometric mean, read-out: hGLP-1R EC50, nM (SEM, n); for Emax: HEK293, 0.1% bovine casein and 1.0% human serum albumin, percent of maximal response to GLP-1(7-36)NH2, read-out: hGLP-1R Emax, % ± SEM. The procedure, abridged: as §1

[4] abbreviates: 0.1% bovine casein and 1.0% human serum albumin, 37° C.
The mark [5] stands for this setting: cAMP, incubated at 37° C., 0.1% bovine casein (no human serum albumin).
[6] abbreviates: HEK293, 0.1% bovine casein and 1.0% human serum albumin, 37° C., percent of maximal response to GIP(1-42)NH2.
[7] abbreviates: HEK293, percent of maximal response to GIP(1-42)NH2, 37° C., 0.1% bovine casein, arithmetic mean.

This note sets out measurements from US20230265151A1, “GIP/GLP1 CO-AGONIST COMPOUNDS” (priority 2020, published 2023).

Read-outs that look alike come from different tables or passages of the source.

T1 sequence (P47871 26-477): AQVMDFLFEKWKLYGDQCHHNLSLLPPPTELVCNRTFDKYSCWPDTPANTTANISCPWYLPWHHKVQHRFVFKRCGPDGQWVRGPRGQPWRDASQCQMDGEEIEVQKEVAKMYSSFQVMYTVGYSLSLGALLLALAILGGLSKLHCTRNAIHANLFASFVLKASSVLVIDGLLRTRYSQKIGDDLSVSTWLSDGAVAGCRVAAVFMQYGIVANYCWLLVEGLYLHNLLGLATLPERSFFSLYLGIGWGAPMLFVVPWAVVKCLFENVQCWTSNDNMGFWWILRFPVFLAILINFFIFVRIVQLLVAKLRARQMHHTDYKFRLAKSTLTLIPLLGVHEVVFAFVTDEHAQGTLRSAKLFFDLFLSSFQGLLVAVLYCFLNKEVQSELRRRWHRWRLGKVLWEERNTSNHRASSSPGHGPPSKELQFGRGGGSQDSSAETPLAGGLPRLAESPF
Chain of hGLP-1R (P43220 24-463): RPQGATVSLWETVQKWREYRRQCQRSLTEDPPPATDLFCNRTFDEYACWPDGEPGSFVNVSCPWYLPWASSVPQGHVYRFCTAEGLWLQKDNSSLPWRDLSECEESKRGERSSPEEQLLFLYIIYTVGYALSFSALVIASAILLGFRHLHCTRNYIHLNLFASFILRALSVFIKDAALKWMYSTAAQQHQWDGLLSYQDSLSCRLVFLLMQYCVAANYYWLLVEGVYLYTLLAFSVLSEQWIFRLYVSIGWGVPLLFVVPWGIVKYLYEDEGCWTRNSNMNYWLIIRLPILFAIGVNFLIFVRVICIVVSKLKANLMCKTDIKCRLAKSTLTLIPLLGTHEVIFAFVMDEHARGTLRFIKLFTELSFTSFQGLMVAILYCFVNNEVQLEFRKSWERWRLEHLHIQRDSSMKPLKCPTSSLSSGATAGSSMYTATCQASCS

As for `CC[C@H](C)[C@H](NC(=O)[C@H](CCCN)NC(=O)[C@H](CC(=O)O)NC(=O)[C@H](CC(C)C)NC(=O)[C@](C)(CC(C)C)NC(=O)[C@@H](NC(=O)[C@H](CO)NC(=O)[C@H](Cc1ccncc1)NC(=O)[C@H](CC(=O)O)NC(=O)[C@H](CO)NC(=O)[C@@H](NC(=O)[C@](C)(Cc1ccccc1F)NC(=O)[C@@H](NC(=O)CNC(=O)[C@H](CCC(=O)O)NC(=O)C(C)(C)NC(=O)[C@@H](N)Cc1ccc(O)cc1)[C@@H](C)O)[C@@H](C)O)[C@@H](C)CC)C(=O)N[C@@H](C)C(=O)N[C@@H](CCC(N)=O)C(=O)NC(C)(C)C(=O)N[C@@H](CCC(=O)O)C(=O)N[C@@H](Cc1ccccc1)C(=O)N[C@H](C(=O)N[C@@H](CCCCNC(=O)[C@@H](N)CCCCNC(=O)CC[C@H](NC(=O)CCCCCCCCCCCCC(=O)O)C(=O)O)C(=O)N[C@@](C)(Cc1ccc(O)cc1)C(=O)N[C@@H](CC(C)C)C(=O)N[C@H](C(=O)N[C@@H](CCC(=O)O)C(=O)NCC(=O)NCC(=O)N[C@@H](CCCCNC(=O)[C@@H](N)CCCCNC(=O)CC[C@H](NC(=O)CCCCCCCCCCCCC(=O)O)C(=O)O)C(=O)N[C@@H](CO)C(=O)N[C@@H](CO)C(=O)NCC(=O)N[C@@H](C)C(=O)N1CCC[C@H]1C(=O)N1CCC[C@H]1C(=O)N1CCC[C@H]1C(=O)N[C@@H](CO)C(N)=O)[C@@H](C)CC)[C@@H](C)CC` [Example 197], the EC50 in test [1] (setting [4]) was over 9950 nM; in test [1] (setting [5]), over 9950 nM; in test [2] (setting [4]), 2.06 nM; in test [2] (setting [5]) it was 0.0338 nM; in test [3] (setting [4]), 26.2 nM; in test [3] (setting [5]), 0.336 nM. For the same molecule, in test [2] (setting [6]), the Emax amounted to 84.5 ± 4.08%.
With `CC[C@H](C)[C@H](NC(=O)[C@H](Cc1ccccc1)NC(=O)[C@H](CCC(=O)O)NC(=O)C(C)(C)NC(=O)[C@H](CCC(N)=O)NC(=O)[C@H](C)NC(=O)[C@H](CCCCNC(=O)COCCOCCNC(=O)COCCOCCNC(=O)CC[C@H](NC(=O)CCCCCCCCCCCCC(=O)O)C(=O)O)NC(=O)[C@H](CCCN)NC(=O)[C@H](CC(=O)O)NC(=O)[C@H](CC(C)C)NC(=O)[C@](C)(CC(C)C)NC(=O)[C@@H](NC(=O)[C@H](CO)NC(=O)[C@H](Cc1ccncc1)NC(=O)[C@H](CC(=O)O)NC(=O)[C@H](CO)NC(=O)[C@@H](NC(=O)[C@](C)(Cc1ccccc1F)NC(=O)[C@@H](NC(=O)CNC(=O)[C@H](CCC(=O)O)NC(=O)C(C)(C)NC(=O)[C@@H](N)Cc1ccc(O)cc1)[C@@H](C)O)[C@@H](C)O)[C@@H](C)CC)C(=O)NCC(=O)N[C@@](C)(Cc1ccc(O)cc1)C(=O)N[C@@H](CC(C)C)C(=O)N[C@H](C(=O)N[C@@H](CCC(=O)O)C(=O)NCC(=O)NCC(=O)N[C@@H](CCCCNC(=O)COCCOCCNC(=O)COCCOCCNC(=O)CC[C@H](NC(=O)CCCCCCCCCCCCC(=O)O)C(=O)O)C(=O)N[C@@H](CO)C(=O)N[C@@H](CO)C(=O)NCC(=O)N[C@@H](C)C(=O)N1CCC[C@H]1C(=O)N1CCC[C@H]1C(=O)N1CCC[C@H]1C(=O)N[C@@H](CO)C(N)=O)[C@@H](C)CC` [Example 104], the EC50 in test [1] (setting [4]) was over 9950 nM; in test [1] (setting [5]), over 9950 nM; in test [2] (setting [5]), 0.0361 nM; in test [3] (setting [4]), 12.3 nM. The Emax stood at 95.9% in test [2] (setting [6]), 94.9% in test [2] (setting [7]) and 95.8% in test [3] (37° C.).
With `CCCCCCCCCCCC(=O)N[C@@H](CCC(=O)NCCOCCOCC(=O)NCCOCCOCC(=O)NCCCC[C@H](NC(=O)CNC(=O)CNC(=O)[C@H](CCC(=O)O)NC(=O)[C@@H](NC(=O)[C@H](CC(C)C)NC(=O)[C@](C)(Cc1ccc(O)cc1)NC(=O)[C@@H](CCC(=O)O)NC(=O)[C@@H](NC(=O)[C@H](Cc1ccccc1)NC(=O)[C@H](CCC(=O)O)NC(=O)C(C)(C)NC(=O)[C@H](CCC(N)=O)NC(=O)[C@H](C)NC(=O)[C@H](CCCCNC(=O)COCCOCCNC(=O)COCCOCCNC(=O)CC[C@H](NC(=O)CCCCCCCCCCC)C(=O)O)NC(=O)[C@H](CCCN)NC(=O)[C@H](CC(=O)O)NC(=O)[C@H](CC(C)C)NC(=O)[C@](C)(CC(C)C)NC(=O)[C@@H](NC(=O)[C@H](CO)NC(=O)[C@H](Cc1ccncc1)NC(=O)[C@H](CC(=O)O)NC(=O)[C@H](CO)NC(=O)[C@@H](NC(=O)[C@](C)(Cc1ccccc1)NC(=O)[C@@H](NC(=O)CNC(=O)[C@H](CCC(=O)O)NC(=O)C(C)(C)NC(=O)[C@@H](N)Cc1ccc(O)cc1)[C@@H](C)O)[C@@H](C)O)[C@@H](C)CC)[C@@H](C)CC)[C@@H](C)CC)C(=O)N[C@@H](CO)C(=O)N[C@@H](CO)C(=O)NCC(=O)N[C@@H](C)C(=O)N1CCC[C@H]1C(=O)N1CCC[C@H]1C(=O)N1CCC[C@H]1C(=O)N[C@@H](CO)C(N)=O)C(=O)O` [Example 172], the EC50 in test [1] (setting [4]) is over 9950 nM; in test [1] (setting [5]), over 9950 nM; in test [2] (setting [4]), 0.385 nM; in test [3] (setting [4]) it was 7.7 nM; in test [3] (setting [5]), 0.141 nM. Further, the Emax in test [2] (setting [6]) was found to be 80.1 ± 2.06%; in test [2] (setting [7]), 89.9 ± 1.05%; in test [3] (37° C.), 112 ± 10.3%.
As for `CC[C@H](C)[C@H](NC(=O)[C@H](CC(C)C)NC(=O)[C@](C)(Cc1ccc(O)cc1)NC(=O)[C@@H](CCC(=O)O)NC(=O)[C@@H](NC(=O)[C@](C)(Cc1ccccc1)NC(=O)[C@H](CCC(=O)O)NC(=O)C(C)(C)NC(=O)[C@H](CCC(N)=O)NC(=O)[C@H](C)NC(=O)[C@H](CCCCNC(=O)COCCOCCNC(=O)COCCOCCNC(=O)CC[C@H](NC(=O)CCCCCCCCCCCCC(=O)O)C(=O)O)NC(=O)[C@H](CCCN)NC(=O)[C@H](CC(=O)O)NC(=O)[C@H](CC(C)C)NC(=O)[C@](C)(CC(C)C)NC(=O)[C@@H](NC(=O)C(C)(C)NC(=O)[C@@H](NC(=O)[C@H](CC(=O)O)NC(=O)[C@H](CO)NC(=O)[C@@H](NC(=O)[C@](C)(Cc1ccccc1F)NC(=O)[C@@H](NC(=O)CNC(=O)[C@H](CCC(=O)O)NC(=O)C(C)(C)NC(=O)[C@@H](N)Cc1ccc(O)cc1)[C@@H](C)O)[C@@H](C)O)C(C)C)[C@@H](C)CC)[C@@H](C)CC)C(=O)N[C@@H](CCC(=O)O)C(=O)NCC(=O)NCC(=O)N[C@@H](CCCCNC(=O)COCCOCCNC(=O)COCCOCCNC(=O)CC[C@H](NC(=O)CCCCCCCCCCCCC(=O)O)C(=O)O)C(=O)N[C@@H](CO)C(=O)N[C@@H](CO)C(=O)NCC(=O)N[C@@H](C)C(=O)N1CCC[C@H]1C(=O)N1CCC[C@H]1C(=O)N1CCC[C@H]1C(=O)N[C@@H](CO)C(N)=O` [Example 93], the EC50 in test [1] (setting [4]) and in test [1] (setting [5]) was over 9950 nM each time. Further, the Emax in test [2] (setting [6]) turned out to be 92%; in test [2] (setting [7]), 99.4 ± 6.93%; in test [3] (37° C.), 90.2%.
